Measurements as given in article PMC7806715, “Discovery of small molecules targeting the tandem tudor domain of the epigenetic factor UHRF1 using fragment-based ligand discovery” (Scientific Reports, 2021).

Tests used:
[1] = target: T1, His6-TTD-PHD (aa 123–366) wild type vs. H3K9me3 peptide (Homo sapiens, UniProt Q96T88); test: TR-FRET assay: His6-TTD-PHD wild type binding to H3K9me3 peptide; assay type: biochemical
T1 construct: made in house; host or cells: Rosetta (DE3) E. coli, pMCSG7
T1 sequence (Q96T88 123-366): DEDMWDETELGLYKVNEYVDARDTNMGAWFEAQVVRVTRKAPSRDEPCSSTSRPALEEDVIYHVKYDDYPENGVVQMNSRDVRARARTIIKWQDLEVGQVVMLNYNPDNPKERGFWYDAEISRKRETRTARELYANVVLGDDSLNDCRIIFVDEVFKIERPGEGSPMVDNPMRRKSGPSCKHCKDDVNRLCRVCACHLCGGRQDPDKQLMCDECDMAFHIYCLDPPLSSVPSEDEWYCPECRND
Procedure: To test this hypothesis, we generated two TTD-PHD mutants: (1) S298D, which mimics phosphorylation at Ser298 and (2) RR295/296AA, which prevents Arg295 and Arg296 of the TTD-PHD linker from contacting the Arg binding cavity of TTD. […] The fragment screen was carried out on low volume 384-well white plates (Corning 4512) and the assay was performed at room temperature. The TR-FRET reagent mix contained 200 nM of biotinylated-H3K9me3 peptide (Anaspec), 250 nM of His6-TTD, 25 nM of streptavidin-d2 (CisBio), and 1 × anti-6His-Tb cryptate Gold (Cisbio) in TR-FRET buffer (50 mM sodium phosphate, pH 7, 150 mM NaCl, 1 mM DTT, and 0.1% Triton-X-100). During the screen, 5 μl of TR-FRET reagent mix was dispensed into each well, and 100 nl of chemical fragments stock (10 mM in DMSO) was added to each well by pintool using Tecan Freedom Evo liquid handler to make the final compound concentration 196 μM. After 1 h of incubation, the fluorescent signals at 665 nm and 620 nm of each plate were measured by the Tecan Infinite M1000 plate reader (excitation 340 nm, 60 μs lag time, and 500 μs integration time) and the TR-FRET signal was calculated by the ratio of 665 nm/620 nm fluorescent signal. For the fragment screen, on seven of the library plates there were 32-wells of DMSO control, while there were 8-wells of DMSO control in the last plate. The TR-FRET assays for the interactions between His6-TTD-PHD and His6-UHRF1-FL binding to biotinylated-H3K9me3 (1-20) peptide were similar to the assay for His6-TTD. The only difference was that the final concentration of […] assay, while the final concentration of His6-UHRF1-FL was 200 nM and biotin-H3K9me3 peptide was 100 nM for the His6-UHRF1-FL TR-FRET assay. The buffer pH was 7.5 for the His6-TTD-PHD and His6-UHRF1-FL assays. The His6-TTD and His6-TTD-PHD proteins (30 μM) were treated with PKA (P2645, Sigma) at 0.5 U/μl at 30 °C for 1 h in the reaction buffer (50 mM Tris, pH 7.5, 10 mM MgCl2, 0.02% Triton-X-100, 1 mM ATP, 1 mM DTT). The untreated sample was incubated at 30 °C for 1 h in same buffer condition without the addition of PKA. […]

UHRF1-TTD = target: T2, UHRF1-TTD (Homo sapiens, UniProt Q96T88); test: Thermal shift assay (TSA) of TTD; assay type: binding; conditions: compound at 500 μM; untagged TTD, 150 mM NaCl; mean ± S.D., n=3
T2 construct: Using the isolated His6-TTD (aa 123–283) we performed a thermal shift assay; His6 (N, cleaved yes); made in house; host or cells: Rosetta (DE3) E. coli, pMCSG7
T2 sequence (Q96T88 123-283): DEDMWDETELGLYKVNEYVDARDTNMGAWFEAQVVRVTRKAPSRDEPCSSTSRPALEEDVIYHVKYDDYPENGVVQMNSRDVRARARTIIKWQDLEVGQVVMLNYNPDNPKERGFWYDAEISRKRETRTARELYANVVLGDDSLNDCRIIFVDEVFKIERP
Procedure: We used three different assays in parallel to screen a ~ 2300-fragment library to identify hits that bind to TTD or inhibit its activities. The first screening method was a direct binding assay, which generally serves as the basis for most fragment screening. Using the isolated His6-TTD (aa 123–283) we performed a thermal shift assay (TSA) to determine the change in melting temperature upon fragment binding. The change in protein melting temperature (ΔTm) caused by each fragment was calculated by comparison to the DMSO controls on the same plate.
The fragment screen was carried out on LightCycler 480 Multiwell Plates 384 (Roche). The TSA mix contains 0.15 mg/ml of His6-TTD, 10 × of SYPRO Orange dye (ThermoFisher) in the TSA buffer (50 mM sodium phosphate, pH = 7, 300 mM NaCl). During the screen, 5 µl of TSA mix was dispensed into each well, and 100 nl of chemical fragments stock (10 mM in DMSO) was added to each well by pintool using Tecan Freedom Evo liquid handler to make the final compound concentration 200 µM. After 1 h of incubation at room temperature, the increase of fluorescence at 580 nm (excitation 465 nm) during the 20–90 degree melting (0.04 °C/s) was measured by LightCycler 480 Instrument II (Roche). For the fragment screen, on seven of the library plates there were 32-wells of DMSO control, while there were 8-wells of DMSO control in the last plate. […] Using un-tagged TTD for TSA provide closer resemblance to the native state of TTD. The lower salt concentration (150 mM NaCl) also allowed better comparison across three different assays during the dose-dependent SAR studies as both AlphaScreen and TR-FRET assay also use buffers containing 150 mM NaCl.

Cc1ccnc(C)c1 [2,4-lutidine]
inhibition of His6-TTD-PHD interaction with H3K9me3 peptide (in words) ([1]; dose-response, side by side with His6-TTD): only weakly inhibits | effect of PKA treatment of His6-TTD-PHD on inhibition of H3K9me3 peptide binding (in words) ([1]; protein treated with PKA and ATP 1 h at 30 °C): improves the ability | inhibition of binding to H3K9me3 peptide ([1]; wild type TTD-PHD, 2.5 mM 2,4-lutidine): 7.9% | ΔTm at 500 µM (UHRF1-TTD): 2.04 ± 0.01 °C
